# From article PMC3792221 (Biomolecules & Therapeutics, 2012)
# Legend:
# [1] = molecular target: T1, MAO-A (rat brain mitochondrial MAO) (Rattus norvegicus, UniProt P21396); experiment: MAO-A inhibition assay in vitro; assay type: biochemical
# T1 sequence (P21396 1-526): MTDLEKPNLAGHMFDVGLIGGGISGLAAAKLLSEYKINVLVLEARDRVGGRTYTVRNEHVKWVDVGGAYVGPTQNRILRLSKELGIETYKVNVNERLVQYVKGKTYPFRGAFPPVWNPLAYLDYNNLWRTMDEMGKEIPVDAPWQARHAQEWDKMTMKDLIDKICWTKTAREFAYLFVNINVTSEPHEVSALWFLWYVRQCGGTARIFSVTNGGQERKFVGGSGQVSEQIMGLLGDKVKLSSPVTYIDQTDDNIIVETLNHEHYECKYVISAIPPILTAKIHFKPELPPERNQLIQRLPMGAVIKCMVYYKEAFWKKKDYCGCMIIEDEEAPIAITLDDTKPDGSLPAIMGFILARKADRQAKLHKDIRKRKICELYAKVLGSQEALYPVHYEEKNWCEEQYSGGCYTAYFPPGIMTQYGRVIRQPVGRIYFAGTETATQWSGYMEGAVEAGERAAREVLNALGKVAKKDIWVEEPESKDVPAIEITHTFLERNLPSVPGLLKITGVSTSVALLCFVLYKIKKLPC
# [2] = molecular target: T2, MAO-B (rat liver mitochondrial MAO) (Rattus norvegicus, UniProt P19643); experiment: MAO-B inhibition assay in vitro; assay type: biochemical
# T2 sequence (P19643 1-520): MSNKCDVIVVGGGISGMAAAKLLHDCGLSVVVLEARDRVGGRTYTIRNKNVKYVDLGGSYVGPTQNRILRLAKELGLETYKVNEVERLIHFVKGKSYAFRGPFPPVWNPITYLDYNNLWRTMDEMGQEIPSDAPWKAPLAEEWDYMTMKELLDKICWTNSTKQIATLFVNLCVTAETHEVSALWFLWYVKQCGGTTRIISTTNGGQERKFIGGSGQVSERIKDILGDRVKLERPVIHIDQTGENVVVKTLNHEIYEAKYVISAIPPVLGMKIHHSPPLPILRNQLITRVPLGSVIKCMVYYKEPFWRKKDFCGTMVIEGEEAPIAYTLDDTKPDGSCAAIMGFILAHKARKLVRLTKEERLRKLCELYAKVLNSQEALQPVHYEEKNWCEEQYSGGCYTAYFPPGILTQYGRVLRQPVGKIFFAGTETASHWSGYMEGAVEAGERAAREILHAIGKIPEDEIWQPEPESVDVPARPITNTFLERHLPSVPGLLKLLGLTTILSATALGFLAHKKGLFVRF
# [3] = molecular target: T3, bovine adrenal DBH (Bos taurus, UniProt P15101); experiment: DBH inhibition assay in vitro; assay type: biochemical
# T3 sequence (P15101 1-610): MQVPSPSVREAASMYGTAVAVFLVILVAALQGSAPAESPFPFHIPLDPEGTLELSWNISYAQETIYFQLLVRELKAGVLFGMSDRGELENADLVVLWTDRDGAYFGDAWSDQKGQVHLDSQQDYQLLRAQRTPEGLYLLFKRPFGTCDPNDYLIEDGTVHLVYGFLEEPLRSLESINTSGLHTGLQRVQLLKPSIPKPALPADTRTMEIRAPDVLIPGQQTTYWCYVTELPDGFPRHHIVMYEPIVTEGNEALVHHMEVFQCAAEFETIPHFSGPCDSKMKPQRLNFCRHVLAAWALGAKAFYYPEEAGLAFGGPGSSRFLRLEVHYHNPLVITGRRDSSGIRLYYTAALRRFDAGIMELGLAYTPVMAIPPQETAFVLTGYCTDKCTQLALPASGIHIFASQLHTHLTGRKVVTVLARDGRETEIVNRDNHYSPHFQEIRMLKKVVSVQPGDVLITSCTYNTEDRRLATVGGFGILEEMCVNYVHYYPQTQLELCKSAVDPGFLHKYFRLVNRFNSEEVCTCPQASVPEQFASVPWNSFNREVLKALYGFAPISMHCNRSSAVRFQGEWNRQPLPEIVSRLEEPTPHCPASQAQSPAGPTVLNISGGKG
# [4] = test system: neural stem cells; conditions: ref Guan et al., 2009; cited from earlier work
# [5] = isolated geniposide; ref Hou et al., 2008; Lu et al., 2011; cited from earlier work
# [6] = IC50 value MAO-A, Table 1, 1 mM serotonin substrate
# [7] = read-out: MAO-A inhibitory activity
# [8] = read-out: MAO-B inhibitory activity
# [9] = IC50 value DBH, Table 1, 120 mM tyramine substrate
# [10] = read-out: DBH inhibitory activity
"IC50 [1, 6] [µM]",IC50 [2] [µM],"inhibition at 50 µg/mL [2, 8] [%]","inhibition at 100 µg/mL [2, 8] [%]","IC50 [3, 9] [µM]","inhibition at 50 µg/mL [3, 10] [%]","inhibition at 100 µg/mL [3, 10] [%]",SMILES,other results
2410,300,50.4 ± 5.9,71.6 ± 9.3,334,49.2 ± 3.1,64.1 ± 6.8,"O=C(O)c1ccc(O)c(O)c1 [Compound 1, protocatechuic acid]","IC50 ([1]; IC50 MAO-A (abstract)): 2410 µM; inhibition at 50 µg/mL [1, 7]: 7.3 ± 2.6%; inhibition at 100 µg/mL [1, 7]: 12.8 ± 4.8%; inhibition at 500 µg/mL [1, 7]: 67.4 ± 5.2%; Specific activity on MAO-B relative to that on MAO-A ([2]; from Table 1): about 8 times; inhibition at 500 µg/mL [2, 8]: 108 ± 1.3%; inhibition at 500 µg/mL [3, 10]: 97.2 ± 2%; Apoptosis of neural stem cells [4]: inhibit apoptosis; Proliferation of neural stem cells [4]: increase proliferation"
> 12900,223,42.8 ± 2.2,52.2 ± 1.5,> 12900,,,"COC(=O)C1=CO[C@@H](O[C@@H]2O[C@H](CO)[C@@H](O)[C@H](O)[C@H]2O)[C@@H]2C(CO)=CC[C@H]12 [Compound 2, geniposide]","inhibition at 4 µg/mL [2, 8]: 9.2 ± 1.2%; inhibition at 20 µg/mL [2, 8]: 16 ± 0.6%; Absorption percentage [5]: very low"
> 11000,780,17.1 ± 1.1,28.7 ± 8,214,33.2 ± 6.9,51.2 ± 5.9,"C[C@H]1[C@H](C)CC[C@]2(C(=O)O)CC[C@]3(C)C(=CC[C@@H]4[C@@]5(C)CC[C@H](O)C(C)(C)[C@@H]5CC[C@]43C)[C@H]12 [Compound 5, ursolic acid]","MAO-A inhibition (in words) [1]: no inhibition; IC50 ([3]; IC50 DBH): 215 µM; inhibition at 2 µg/mL [3, 10]: 18.2 ± 7.6%; inhibition at 10 µg/mL [3, 10]: 20.8 ± 10.7%"
